Molecular target: ADRB2 (Homo sapiens, UniProt P07550)
Conditions: 100 μM compound, 5 nM barcoded β-arr2, GRK2
Protocol: A compound library could be screened in multi-well plates, and in each well, one compound was assayed with many barcoded GPCRs and a β-arrestin-2 (β-arr2) protein bearing a well-position-associated barcode (FIG. 3C). All the samples were pooled and deposited on one slide, and the interaction of a GPCR with a compound was detected by the increased GPCR polony co-localization with the corresponding β-arr2 polonies. […] The co-localization ratios were measured at 50 imaging positions on the array for statistical analysis.
A GPCR-β-arr2 binding assay was performed by mixing a ligand with ˜1 nM GPCR-nanodisc complexes in an assay buffer A2 (20 mM HEPES, pH 7.5, 50 mM KOAc, 2 mM EDTA and 5 mM MgCl2), followed by addition of 10 nM GRK2 (Life Technologies), 0.1 mM ATP, 10 nM G protein β1γ2 subunits (KeraFAST) and 5 nM barcoded β-arr2 in a total volume of 25 μL. Compounds were assayed in parallel using a multi-well plate, and the reactions were incubated at 30° C. for 30 min. Similarly as described above, GPCR-β-arr2 complexes were crosslinked and both crosslinked and free GPCRs were purified from the reactions with the anti-HA magnetic beads. Proteins were pooled and analyzed on a single array.

Sequence of ADRB2 (P07550 whole entry): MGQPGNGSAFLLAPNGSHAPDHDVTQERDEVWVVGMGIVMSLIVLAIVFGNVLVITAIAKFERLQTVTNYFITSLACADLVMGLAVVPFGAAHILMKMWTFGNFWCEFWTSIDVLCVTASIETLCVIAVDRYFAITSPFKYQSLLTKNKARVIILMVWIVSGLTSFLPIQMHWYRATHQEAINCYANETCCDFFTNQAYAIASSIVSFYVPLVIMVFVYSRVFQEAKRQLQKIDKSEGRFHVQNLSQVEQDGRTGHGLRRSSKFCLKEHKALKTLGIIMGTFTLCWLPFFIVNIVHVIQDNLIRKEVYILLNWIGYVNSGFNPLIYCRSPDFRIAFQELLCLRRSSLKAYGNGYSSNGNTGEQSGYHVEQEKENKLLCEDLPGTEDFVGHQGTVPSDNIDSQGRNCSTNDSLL

CC(C)NCC(O)COc1cccc2[nH]ccc12 (stereo not shown) [pindolol]
agonist type identified by polony co-localization ratios: partial

— patent publication US12305226B2, “Barcoded protein array for multiplex single-molecule interaction profiling” (President and Fellows of Harvard College, priority 2014, dated 2025)
